Patent US20230023009A1, “HETEROCYCLIC COMPOUNDS AND METHODS OF USE THEREOF” (SPARCBIO LLC, priority 2020, published 2023)
pIC50: −log10 of the molar value.

How the values were obtained:
Assay type in all cases: cell-based
A549 = assay: Cell proliferation assay panel (Cell Titer-Glo, 72 hr); conditions: Homo sapiens
KYSE-410 = assay: as above; conditions: Homo sapiens
NCI-H2122 = assay: as above; conditions: Homo sapiens
NCI-H358 = assay: as above; conditions: Homo sapiens
NCI-H2030 = assay: as above; conditions: Homo sapiens
NCI-H358 cells = assay: 3D cell proliferation assay (Cell Titer-Glo 3D, 7 days); conditions: Homo sapiens, NCI-H358, 168 h, NCI-H358 3D, ultra-low attachment plate
Protocol: NCI-H358 cells (ATCC® CRL-5807™) were plated in a 384-well Black/Clear Round Bottom Ultra-Low Attachment Microplate (Corning) in medium (RPMI-1640+10% FBS) at a density of 1000 cells in 50 μL per well, then incubated overnight at 37° C. and 5% CO2. Cells were treated with test compounds at 9 concentrations within a specified concentration range (e.g., 0.5 nM-10 μM) for generation of dose response curves. Test compounds were prepared by 1:3 serial dilution in DMSO from a specified starting concentration (e.g., 20 μM, 2 μM or 0.2 μM) and then added to wells of the assay plate in a total volume of 150 nL DMSO. The cells were further incubated at 37° C. and 5% CO2 for 7 days. Cell viability was assessed by adding 40 μL of Cell Titer-Glo® 3D reagent (Cat. No.: G9683, Promega) to each well and reading luminescence after mixing and incubation of the samples. The IC50 value of each test compound was calculated with XLFit curve fitting software.

With C=C(F)C(=O)N1CCN(c2nc(OC[C@@H]3CCCN3C)nc3c2CO[C@@H](c2cccc4cccc(Cl)c24)C3)C[C@@H]1CC#N (single isomer, unassigned) [43 (Isomer B)] the pIC50 (A549) was at most 5.52, the pIC50 (KYSE-410) was at most 5.52 and the pIC50 (NCI-H2122) was 5.52 to 6.52. The pIC50 (NCI-H358) was at least 6.52, the pIC50 (NCI-H2030) was 5.52 to 6.52 and the pIC50 (NCI-H358 cells) was at least 7.00.
